Measured values reported in patent US10045972B2, “Hydroxypyridone derivatives, pharmaceutical compositions thereof, and their therapeutic use for treating inflammatory, neurodegenerative, or immune-mediated diseases” (BioTheryX, Inc., priority 2014, dated 2018).
“Also recorded” adds a separate entry of the source.

Assays:
[1] = tested on: primary human oligodendrocytes; experiment: Protection from cuprizone toxicity, primary human oligodendrocytes, live cell images; details: 24 hrs, FIG. 7
Description: Cells were weaned off with fetal bovine serum containing differentiation medium (Celprogen) up to 25 days in culture. The cells were exposed to either no treatment (Vehicles=ethanol and DMSO); compound A1 ranging in dosage of 2, 5 and 10 μM; cuprizone (50 μM) (Sigma Aldrich) or a combination of compound A1 and cuprizone (50 μM). Cells were treated for 24 hrs, after which images were captured of live cells using an inverted Zeiss microscope.

[2] = tested on: myelin basic protein (MBP) in MO3-13 cells; experiment: Induction of myelin basic protein (MBP) production in MO3-13 cells (slot blot, anti-MBP); type: cell-based, human
Description: Dilutions (0.1 mg/mL) of MO3-13 whole cell extracts were prepared and the proteins (5 μg) from the dilutions were blotted onto nitrocellulose membrane using a slot blotter. The non-protein sites on the blot were blocked with 2% ECL block in PBS-Tween20. Primary […] was diluted in block solution at 300×. The primary antibody was incubated overnight at 4° C. with gentle shaking. The following day the blot was developed using enhanced ECL (GE Healthcare) method. Image of bound antibody were captured using Image Lab software driving a Bio-Rad ChemiDoc XRS+ image capture system.

MO3-13 cells [3] = experiment: Protection of differentiated MO3-13 cells against TNF-α toxicity (Kinetic Apoptosis Kit, live cell fluorescence microscopy); type: cell-based; details: 1 μM ciclopirox with human TNF-α protein 30 ng/mL; images after 1, 15 and 72 hrs, FIG. 3
Description: The protective effects of ciclopirox on MO3-13 cells against TNF-α toxicity was also determined. MO3-13 cells were grown in 6 well dishes and allowed to adhere overnight. Cells were grown to 70% confluence and then differentiated into oligodendrocyte-like cells by removal of FBS from DMEM medium for 48 hrs. Cells were treated with vehicle (no treatment); human TNF-α protein (30 ng/mL); 1 μM ciclopirox; and a combination of 1 μM ciclopirox and human TNF-α protein (30 ng/mL). Cells were treated with Abcam's Kinetic Apoptosis Kit (Microscopy) prior to live cell fluorescence microscopy imaging using an inverted Zeiss epi-fluorescent microscope. Merged images of phase contrast, green (pSIVA-IANBD) and red (PI) fluorescence were captured after 1 hr, 15 and 72 hrs in cell culture.

[4] = tested on: human oligodendrocytes (MO3-13); experiment: TNF-α toxicity on MO3-13 cells and protection (Trypan blue cell counts); type: cell-based; details: cells exposed to LD50 human TNF-α protein, FIG. 2
Description: MO3-13 cells were grown in 6 well dishes (100,000 cells per dish) and allowed to adhere overnight. Cells were treated with increasing amounts of human recombinant TNF-α protein (Abcam Ab9642). Cells either treated with increasing amounts of TNF-α protein or with vehicle (PBS) were allowed to grow for additional 24 hrs, after which MO3-13 cells were trypsinized and counted using Trypan blue and a Nebauer hemocytometer. Mean cell counts were plotted graphically against TNF-α concentrations. The LD50 of human TNF-α was determined to be 30 ng/mL on MO3-13 cells. The protective effects of compound A1 on MO3-13 cells that were exposed to LD50 human TNF-α protein were then determined and the results are shown in FIG. 2.

[5] = tested on: primary human oligodendrocytes; experiment: Protection from cuprizone toxicity, primary human oligodendrocytes, MITOTRACKER and immunocytochemistry; type: cell-based; details: MITOTRACKER (red), green channel, nuclei (blue), FIGS. 8 and 9
Description: MITOTRACKER® (100 nM) was incubated with the live cells at 37° C. for 30 min. MITOTRACKER® labeling of mitochondria was assessed using a Zeiss inverted microscope. Following MITOTRACKER® treatment, cells were processed for immunocytochemistry. Cells grown on human oligodendrocyte extracellular matrix coated cover slips (Celprogen) were fixed with fixing solution containing 0.1% gluteraldehyde, 2% paraformaldehyde, 80 mM Pipes, 5 mM EGTA, pH 8.0, 1 mM MgCl2, and 0.5% Triton-X100. The cells were fixed for 7 min at 37° C. The cells on cover slips were washed and then blocked with 2% bovine serum albumin (BSA) for 1 hr. Primary antibodies were diluted in 2% BSA and incubated on the cover glass for 1 hr in a humid chamber. Following incubation, cover slips were washed and then incubated for 1 hr with species-specific secondary antibodies conjugated with fluorescent label or with biotin. After washing, slides were incubated with streptavidin conjugated with fluorescein fluorescent labels for 40 min. Cover slips were washed again and mounted with DABCO mountant. Fluorescently labeled cells were visualized with a Zeiss epi-fluorescent microscope. Data collected was for MITOTRACKER® (red channel) and MBP (green channel). Nuclei are labeled with DAPI (blue channel).

MO3-13 cells [6] = experiment: Protection of MO3-13 cells from cuprizone toxicity (phase contrast); type: cell-based, human; details: compound 5 μM, cuprizone 50 μM, 24 hrs, FIG. 5
Description: The protective effects of compound A1 on MO3-13 cells from cuprizone toxicity was then determined. […] Cuprizone at a final concentration of 50 μM was solubilized in 100% ethanol was added to selected dishes with and without compound A1 (5 μM) in DMSO.

[7] = tested on: primary mouse oligodendrocytes; experiment: Protection from cuprizone toxicity, primary mouse oligodendrocytes, MITOTRACKER and immunocytochemistry; type: cell-based; details: MITOTRACKER (red) and beta-catenin (green), FIG. 6
Description: Stock MITOTRACKER® (Molecular Probes) was diluted with DMSO to a final concentration of 1 mM. MITOTRACKER® (100 nM) was incubated with the live cells at 37° C. for 30 min. MITOTRACKER® labeling of mitochondria was assessed using a Zeiss inverted microscope. Following MITOTRACKER® treatment, cells were processed for immunocytochemistry. Cells grown on mouse oligodendrocyte extracellular matrix coated cover slips (Celprogen) were fixed with fixing solution containing 0.1% gluteraldehyde, 2% paraformaldehyde, 80 mM Pipes, 5 mM EGTA, pH 8.0, 1 mM MgCl2, and 0.5% Triton-X100. The cells were fixed for 7 min at 37° C. The cells on cover slips were washed and then blocked with 2% bovine serum albumin (BSA) for 1 hr. Primary antibodies were diluted in 2% BSA and incubated on the cover glass for 1 hr in a humid chamber. Following incubation, cover slips were washed and then incubated for 1 hr with species-specific secondary antibodies conjugated with fluorescent label or with biotin. After washing, slides were incubated with streptavidin conjugated with fluorescein fluorescent labels for 40 min. Cover slips were washed again and mounted with DABCO mountant. Fluorescently labeled cells were visualized with a Zeiss epi-fluorescent microscope. Data collected was for MITOTRACKER® (red channel) and beta-catenin (green channel).

[8] = tested on: TNF-α secretion from human primary glioblastoma cells (U87); experiment: Reduction of TNF-α secretion from U87 cells (slot blot of conditioned media); type: cell-based; details: compound at 10 μM, 48 hrs, FIG. 1
Description: TNF-α secretion was measured using U87 cell line. Cells were distributed into 6 well dishes and allowed to adhere overnight. When cells were confluent, they were treated with 6-cyclohexyl-1-hydroxy-4-methyl-1H-pyridine-2-thione A1 at 10 μM in each dish, wherein compound A1 was solubilized in neat DMEM. Cells were exposed to the compound for 48 hrs. Conditioned media was collected and assayed for TNF-α using mouse monoclonal to TNF-α (Abcam 52B83, Cambridge, Mass.). Conditioned media (100 μL) was applied to each slot. The nitrocellulose filter membrane was blocked with ECL advanced block (2% in Tris buffered saline with Tween-20 (0.05%)) for 1 hr with gentle shaking at room temperature. Primary mouse anti-TNF-α (Abcam 52B83) was diluted 1,000× in the blocking solution. Primary antibodies were applied to blots and incubated overnight at 4° C. with gentle shaking. Blots were developed using enhanced ECL (GE Healthcare) method. Images of bound antibodies were captured using Image Lab software driving a Bio-Rad ChemiDoc XRS+ image capture system.

In the case of `O=C(NN=C1CCCCC1)C(=O)NN=C1CCCCC1` [cuprizone, reference compound], the “toxicity of cuprizone to primary human oligodendrocytes” value ([1]; cuprizone 50 μM alone) is reported as “toxic” and the “anti-MBP antibody binding compared with non-treated (NT) cells” value ([2]; MO3-13 cells treated with Cpz alone, FIG. 10) is reported as “reduced anti-MBP antibody binding”.

With `Cc1cc(C2CCCCC2)n(O)c(=O)c1` [ciclopirox] the “protection of MO3-13 cells against TNF-α toxicity” value (MO3-13 cells [3]) was “protection; also recorded: protective up to 72 hrs”.

For `Cc1cc(C2CCCCC2)n(O)c(=S)c1` [compound A1, 6-cyclohexyl-1-hydroxy-4-methyl-1H-pyridine-2-thione], the “protection of MO3-13 cells against TNF-α toxicity” value [4] was “protection”, the “protection of primary human oligodendrocytes against cuprizone toxicity” value [5] was “protection” and the “protection of primary human oligodendrocytes against cuprizone toxicity” value ([1]; compound 2, 5 and 10 μM with cuprizone 50 μM, live cell images) was “protection; also recorded: appears to be protective at various dosings”. The “MBP bound by anti-MBP (induction of MBP production)” value ([2]; MO3-13 cells treated with Cpz and compound, p<0.001, FIG. 10) was “induction of myelin basic protein (MBP) production; also recorded: significantly higher”, the “MBP bound by anti-MBP” value ([2]; MO3-13 cells treated with compound alone, p<0.001, FIG. 10) was “significantly higher” and the “protection of MO3-13 cells against cuprizone toxicity” value (MO3-13 cells [6]) was “protection”. The “protection of primary mouse oligodendrocytes against cuprizone toxicity” value [7] was “protection” and the “reduction of TNF-α secretion” value [8] was “reduction of TNF-α secretion”.
